Paper PMC9414874, “New Benzimidazoles Targeting Breast Cancer: Synthesis, Pin1 Inhibition, 2D NMR Binding, and Computational Studies” (Molecules, 2022)
“And” between values parts separate entries of the source, which are not always exact repeats. Equal entries are not always repeated. Where two headings read alike, the source gives them in different places.

What was measured:
Pin1 = Pin1 (Homo sapiens, UniProt Q13526); experiment: Pin1 inhibition assay (SensoLyte Green Pin1 Assay Kit); assay type: biochemical; parameters: purchased; conditions: means ± SD of three experiments
Sequence of Pin1 (Q13526 whole entry): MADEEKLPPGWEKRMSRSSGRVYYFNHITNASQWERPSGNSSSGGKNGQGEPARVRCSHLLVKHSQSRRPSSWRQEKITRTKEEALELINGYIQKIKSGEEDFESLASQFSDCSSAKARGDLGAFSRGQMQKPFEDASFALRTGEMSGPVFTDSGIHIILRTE
Experimental: The ability of the synthesized compounds to inhibit the Pin1 activity was evaluated using the SensoLyte® Green Pin1 Assay Kit. This assay is based on using a fluorogenic substrate which was pretreated to convert it into the cis isomer. Pin1 can change this substrate into the trans isomer that is easily cleaved to generate a fluorescent signal.

MCF-7 cells [1] = experiment: Annexin V-FITC/PI dual staining apoptosis assay; assay type: cell-based, human; conditions: MCF-7, 2 µM, 24 h
Experimental: This assay was performed using a breast MCF-7 cell line to determine the percentage of apoptosis induced by compound 8, in which MCF-cells were incubated with compound 8 at 2 µM concentration for 24 h.
Apoptosis detection was performed by using Annexin V-FITC and PI apoptosis kit (eBioscience^TM, San Diego, CA, USA). Mcf cells were plated at a 600,000 cells/mL density onto a six well plate. After 24 h of incubation, the cells were treated with compound 8 at […]. Cells grown in media containing an equivalent amount of DMSO served as solvent control. After 24 h, the cells were stained with an Annexin V-FITC conjugate and propidium iodide (PI), and the percentage of apoptotic, necrotic, and living cells was determined according to the protocol provided by the Annexin V-FITC and PI apoptosis kit. The cells’ emitted fluorescence was analyzed by flow cytometry (NovoCyte, ACEA Biosciences Inc., San Diego, CA, USA) through the NovoExpress 1.3.0 software (ACEA Biosciences Inc., San Diego, CA, USA), acquiring 1 × 104 events per sample using the population plot “dot plot”, where each point corresponds to a single event with a specific fluorescence signal about the axes; Annexin V-FITC green fluorescence in abscissa vs. PE red fluorescence inordinate.

caspase-9 = experiment: Caspase-9 level by ELISA in MCF-7 cells; assay type: cell-based, human
Experimental: (§1) Apoptosis can be excited by different stimuli via intrinsic and extrinsic pathways. It was reported that pin 1 inhibition involving apoptosis was performed via intrinsic mitochondrial l) pathways. […] The Bax/Bcl-2 ratio plays an important role in controlling the release of mitochondrial cytochrome c, after its release to the cytosol, caspase 9 is activated which can mediate downstream caspase activation including: caspase-3, caspase-6, and caspase-7 that obligated cells to apoptosis. Based on the above, we examined compound 8 capability to trigger intrinsic apoptotic pathways by affecting the expression of these markers in MCF-7 cells. […] In addition, it elevated the level of cytochrome C by about 2.49-fold compared to the control. […]
(§2) The level of BAX, Bcl-2, cytochrome C, and caspases 6, 7, and 9 were estimated using ELISA colorimetric kits; for BAX (DRG® Human Bax ELISA, EIA-4487), Bcl-2 (Zymed® Bcl-2 ELISA Kit), cytochrome c (Abcam cytochrome c Human ELISA kit, ab119521), caspase-6 (Human CASP6, ELISA Kit, MBS2533323), caspase-7 (Caspase-7 (Human) ELISA Kit, E4295-100), caspase-9 (DRG® Caspase-9 (human) ELISA, EIA-4860). […] This lysate was diluted in Standard Diluent Buffer all over the assay, then by using a microplate reader set at 450 nm, the optical density of each well was determined within 30 min to determine the human active BAX, Bcl-2, cytochrome C, caspases 6, 7 and 9 content.

BAX = BAX level by ELISA in MCF-7 cells; assay type: cell-based, human
Experimental: as §1, §2

MCF-7 cells [2] = experiment: Cell cycle distribution / DNA content by flow cytometry; assay type: cell-based, human; conditions: MCF-7, 2 µM, 24 h
caspase-6 = experiment: Caspase-6 level by ELISA in MCF-7 cells; assay type: cell-based, human; conditions: mean ± SD of three experiments
Experimental: as §1, §2

caspase-7 = experiment: Caspase-7 level by ELISA in MCF-7 cells; assay type: cell-based, human
Experimental: as §1, §2

ROS in MCF-7 cells = experiment: Intracellular ROS accumulation assay (Human ROS ELISA Kit); assay type: cell-based
Description: Reactive oxygen species (ROS) are chemically reactive species containing oxygen atoms including peroxides, superoxide, and hydroxyl radicals. They play an important role in the activation of apoptosis under physiological or pathological conditions. Direct or indirect ROS action can mediate the release of mitochondrial cytochrome c which trigger the induction of caspase. The intracellular level of ROS was estimated by The Human ROS ELISA Kit, which is based on standard sandwich enzyme-linked immunosorbent assay technology.
The Human ROS ELISA Kit is based on standard sandwich enzyme-linked immunosorbent assay technology. In which, the anti-Human ROS specific antibody has been pre-coated onto a 96-well plate and the human ROS present in the standards/samples bind to the capture antibody. Then biotinylated anti-Human ROS detection antibody is added to form an Ab-Ag-Ab sandwich. After a washing step, streptavidin-HRP is added and the unbound conjugate is removed with wash buffer. Subsequently, the addition of HRP substrate, TMB, results in the production of a blue-colored product that changes to yellow after the addition of acidic Stop Solution, and the density of yellow color is directly proportional to the amount of Human ROS captured on the plate. […] After that adding 90 μL TMB substrate, incubating 15–30 min at 37 °C, adding 50 μL Stop Solution and reading at 450 nm immediately. […]

MCF-7 = experiment: MTT cytotoxicity assay against breast cancer cell line MCF-7; conditions: for IC50: Homo sapiens
Experimental: All our newly synthesized hybrids were evaluated for their in vitro anticancer activity by the standard MTT assay against a breast cancer cell line (MCF-7). MTT is a calorimetric assay which relies on the ability of live tumor cells to reduce yellow MTT (3-(4,5-dimethylthiazol-2-yl)-2,5-diphenyltetrazolium bromide) to purple formazan by mitochondrial dehydrogenases, then added DMSO to dissolve the purple formazan and quantified by measuring absorbance at a certain wavelength. The dose response curve for compounds-treated vs. untreated cells is used to quantify the amount of formazan produced to report on the effectiveness of the compounds. […] Cell line: Mammary gland breast cancer (MCF-7). The cell line was obtained from ATCC via Holding company for biological products and vaccines (VACSERA), Cairo, Egypt. […] The cell line elucidated above were used to determine the inhibitory effects of compounds on cell growth using the MTT assay. […] After incubation, the cells were treated with different concentrations of compounds and incubated for an additional 24 h. After 24 h of drug treatment, 20 µL of MTT solution at 5 mg/mL was added and incubated for 4 h. […] The relative cell viability in percentage was calculated as (A570 of treated samples/A570 of the untreated sample) × 100 [48].

[3] = In vitro cytotoxicity against normal Human lung fibroblast (WI38) cell line; assay type: cell-based; conditions: human, WI38 normal lung fibroblast cells
WI38 = experiment: as above; assay type: cell-based
Bcl-2 = Bcl-2 level by ELISA in MCF-7 cells; assay type: cell-based, human
Experimental: as §1, §2

cytochrome C = experiment: Cytochrome c level by ELISA in MCF-7 cells; assay type: cell-based, human
Experimental: as §1, §2

SMILES: CN(C)c1ccc(C2CC(c3nc4cc(Cl)c(Cl)cc4[nH]3)=NO2)cc1 (stereo not shown) [Compound 8, 4-(3-(5,6-Dichloro-1H-benzo[d]imidazol-2-yl)-4,5-dihydroisoxazol-5-yl)-N,N-dimethylaniline]
- IC50 (Pin1): 0.00076 ± 4e-05 µM
- Apoptosis Early (MCF-7 cells [1]): 3.7% and 3.71%
- Apoptosis Late (MCF-7 cells [1]): 15.32%
- Apoptosis Total (MCF-7 cells [1]): 38.25%
- Increase of apoptosis (15.32%) over untreated cells (MCF-7 cells [1]): 128 fold
- Necrosis (MCF-7 cells [1]): 19.22%
- Enhancement of caspase 9 level compared to the control (caspase-9): ~8.97 fold
- Casp.9 level (caspase-9; mean ± SD of three experiments): 20.86 ± 0.73 ng/mL
- Increase of Bax level compared to the control (BAX): 4.63 fold
- BAX level (BAX; mean ± SD of three experiments): 268.71 ± 9.20 pg/mL
- DNA Content %G0-G1 (MCF-7 cells [2]): 44.29%
- DNA Content %G2-M (MCF-7 cells [2]): 6.45%
- DNA Content %Pre G1 (MCF-7 cells [2]): 38.25%
- DNA Content %S (MCF-7 cells [2]): 49.26%
- Casp.6 level (caspase-6): 0.48 ± 0.02 ng/mL
- Enhancement of caspase 7 level compared to the control (caspase-7): ~9.06 fold
- Casp.7 level (caspase-7; mean ± SD of three experiments): 4.17 ± 0.11 ng/mL
- melting point: 155 to 158 °C
- ROS accumulation higher than the control cells (ROS in MCF-7 cells): 1.258 fold
- IC50 (MCF-7; MCF7, 24 h, read-out: In Vitro Cytotoxicity IC50 MCF-7, MTT assay, 24 h treatment): 8.7 ± 0.6 µM
- IC50 (MCF-7; MCF7, read-out: IC50 against breast cancer cell line (MCF-7), MTT assay, section 2.2): 8.76 µM
- Cytotoxic activity class against MCF-7 (MCF-7; class by IC50): very strong (1–10 (very strong))
- IC50 at 24 h [3]: 71.6 µM
- IC50 (WI38): 71.6 ± 4 µM
- Decrease of Bcl-2 level compared to the control (Bcl-2): 39%
- BCL-2 level (Bcl-2; mean ± SD of three experiments): 2.81 ± 0.07 ng/mL
- Elevation of cytochrome C level compared to the control (cytochrome C): about 2.49 fold
- Cytoc level (cytochrome C; mean ± SD of three experiments): 0.62 ± 0.02 ng/mL
